The source of these data is US20070092551A1, “Therapeutic agent” (TAKARA BIO INC., priority 2003, published 2007).

Assay type in all cases: cell-based
One experiment has as its system 3T3-L1 cells. Briefly: Induction of adipocyte differentiation (amount of triglyceride biosynthesis). The following applies: Mus musculus, 3T3-L1, X=(S−N)/(P−N) of amount of triglyceride, P=insulin positive control, read-out: Action for Induction of Differentiation. In short, it runs like this:
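Differentiation scored as X=(S−N)/(P−N), ranked +++, ++, +, +/−, where S, N and P are triglyceride with compound, DMSO and insulin; triglyceride was extracted with hexane:isopropanol (3:2) and assayed twice. Compound was added after 7 days' growth, first with 0.25 μM dexamethasone (45 h), then for 7 days.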

Experiment [1] concerns the target T1, fusion protein of an yeast GAL4 DNA-binding domain and a human PPARγ ligand-binding site (Homo sapiens, UniProt P37231).
T1 construct: expressed in transfected cells; host or cells: CV-1 cells
T1 sequence (P37231 204-505): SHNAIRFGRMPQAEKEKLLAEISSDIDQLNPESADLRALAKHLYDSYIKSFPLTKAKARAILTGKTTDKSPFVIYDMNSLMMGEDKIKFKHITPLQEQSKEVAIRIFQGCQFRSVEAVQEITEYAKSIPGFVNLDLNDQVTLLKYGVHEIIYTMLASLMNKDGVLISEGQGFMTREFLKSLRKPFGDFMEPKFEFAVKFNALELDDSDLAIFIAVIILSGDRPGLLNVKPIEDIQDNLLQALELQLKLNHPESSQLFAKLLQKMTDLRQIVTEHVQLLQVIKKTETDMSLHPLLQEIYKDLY
Briefly: PPARγ activation reporter assay in CV-1 cells. The conditions noted are these: test compound 10 μM, pFA-CMV (PPARγ), 24 hours. The protocol: The activation ability for PPARγ was determined by a reporter assay using a fusion protein of an yeast GAL4 DNA-binding domain and a human PPARγ ligand-binding site.
A plasmid (pGAL4/GL3-Promoter) was prepared by repeating five times insertion of a binding site (UASg) of GAL4 into a multicloning site of a pGL3-Promoter vector (Promega). In addition, a ligand-binding site (amino acid sequence 204 to 505) of the PPARγ gene was cloned from a human liver cDNA library (manufactured by TAKARA BIO INC.) by a polymerase chain reaction, and the ligand-binding site was inserted into a multicloning site of a pFA-CMV plasmid vector ([…]) to give pFA-CMV (PPARγ).
Escherichia coli JM-109 strain was transformed with each of the two kinds of the plasmids obtained by the above-mentioned procedures, and pFA-CMV and pRL-TK (Promega) according to a conventional method. Each of the Escherichia coli cells was cultured with shaking at 37° C. for 18 hours in an LB medium containing 100 μg/mL ampicillin. Thereafter, the plasmids of each were purified according to the procedure manual of QIAfilter Plasmid midi Kit (QIAGEN).
CV-1 cells were seeded in a 24-well plate so as to have a density of 4×10^4 cells per well. Thereafter, the cells were cultured in a Dulbecco's modified Eagle's medium (manufactured by Sigma, D5796) containing 10% fetal bovine serine (manufactured by Bio Whittaker) for 24 hours under the conditions of 37° C. and 5% CO2. Thereafter, in accordance with the procedure manual of LipofectAmine 2000 (Invitrogen), the gene transfer was carried out into the CV-1 cells with 200 ng of pFA-CMV (PPARγ) or pFA-CMV, 400 ng of pGAL4/GL3-promoter, and 200 ng of pRL-TK per well, and thereafter the cells were cultured for 24 hours under the conditions of 37° C. and 5% CO2. Thereafter, the medium was exchanged with a Dulbecco's modified Eagle's medium to which a test compound dissolved in dimethyl sulfoxide was previously added so as to have a final concentration of 10 μM. Thereafter, the cells were cultured for additional 24 hours. In addition, there were set a group with addition of dimethyl sulfoxide in place of a test compound as a negative control, and a group with addition of troglytazone (manufactured by Calbiochem) so as to have a final concentration of 3 μM as a positive control. The cells were washed with a phosphate buffered saline, and 5× PassiveLysisBuffer (Promega) which was previously diluted in 5-folds with distilled water was added thereto in an amount of 100 μL per well. The mixture was shaken at room temperature for 15 minutes to lyse cells. Twenty microliters of this lysed solution was applied in accordance with the procedure manual of Dual Luciferase Assay System (Promega), and a fluorescent luciferase emission intensity and a Renilla mullerei luciferase emission intensity were measured using Mithras-LB940 (BERTHOLD TECHNOLOGIES GmbH). The enhancing action for transcriptional activation of each test compound was shown as a relative value obtained by calculating a ratio of the fluorescent luciferase emission intensity to the Renilla mullerei luciferase emission intensity, wherein the value of the group with addition of the negative control is defined as 1.
(Reporter assays use an easily measured gene product as a stand-in for the process of interest.)

Experiment [2] concerns mature adipocytes (3T3-L1 cells). Briefly: Enhancing action on glucose uptake (2-deoxyglucose) into mature adipocytes. The conditions noted are these: Mus musculus, 3T3-L1, X=(S−N)/(P−N) of 2-deoxyglucose uptake, P=insulin 1 μg/mL, read-out: Enhancing Action on Glucose Uptake.

Bounds are passed on as bounds.

For the compound `COc1cc(O)c(CC=C(C)C)c(O)c1C(=O)/C=C/c1ccc(O)cc1` [Xanthohumol, 4,2′,4′-trihydroxy-3′-prenyl-6′-methoxychalcone], in the experiment with 3T3-L1 cells, the activation at 4 µM fell in the range of 15 to 30% and the activation at 13 µM fell in the range of 30 to 60%. Moreover, the “enhancing action for transcriptional activation (PPARγ)” value in experiment [1] is listed as “no enhancing action for transcriptional activation was found”.

In the case of `COc1ccc(C(=O)/C=C/c2ccc(O)cc2)c(O)c1Cc1ccccc1` [Compound (C056), 4,2′-dihydroxy-3′-benzyl-4′-methoxychalcone], in the experiment on 3T3-L1 cells, the activation at 1 µM is 15 to 30%, the activation at 3 µM is 30 to 60% and the activation at 10 µM was greater than 100%. In addition, in experiment [2], the activation at 3 µM was in the range of 15 to 30%, the activation at 10 µM is greater than 100% and the activation at 30 µM is greater than 100%.

Take `COc1ccc(/C=C/C(=O)c2c(OC)cc(OC)c(CC=C(C)C)c2O)cc1` [Compound (C046), 4,4′,6′-trimethoxy-2′-hydroxy-3′-prenylchalcone]: in the experiment with 3T3-L1 cells, the activation at 3 µM was in the range of 60 to 100% and the activation at 10 µM is greater than 100%. For the same compound, in experiment [2], the activation at 3 µM was in the range of 15 to 30%, the activation at 10 µM was greater than 100% and the activation at 30 µM is greater than 100%.

For `O=C(/C=C/c1ccc(O)cc1)c1ccc(O)c(Cc2ccccc2)c1O` [Compound (C057), 4,2′,4′-trihydroxy-3′-benzylchalcone], in the experiment with 3T3-L1 cells, the activation at 3 µM fell in the range of 30 to 60% and the activation at 10 µM was greater than 100%. In experiment [2], the activation at 10 µM lay in the range of 15 to 30% and the activation at 30 µM is greater than 100%.

With `COc1cc(O)c(C(=O)/C=C/c2ccc(O)cc2)cc1CC=C(C)C` [Bavachalcone, 4,2′-Dihydroxy-4′-methoxy-5′-prenylchalcone], in the experiment with 3T3-L1 cells, the activation at 4 µM was in the range of 15 to 30% and the activation at 13 µM lay in the range of 30 to 60%. Moreover, in experiment [2], the activation at 10 µM is 30 to 60% and the activation at 30 µM was greater than 100%.

With `CCOc1ccc(C(C)=O)c(O)c1CC=C(C)C` [Compound (C047), 2′-hydroxy-3′-prenyl-4′-ethoxyacetophenone], in the experiment with 3T3-L1 cells, the activation at 10 µM lay in the range of 30 to 60% and the activation at 30 µM was in the range of 60 to 100%. In experiment [2], the activation at 3 µM lay within 30 to 60%, the activation at 10 µM was in the range of 60 to 100% and the activation at 30 µM was greater than 100%.

Turning to `CC(C)=CCc1c(O)ccc(C(=O)/C=C/c2ccc(Cl)cc2)c1O` [Compound (C075), 4-chloro-2′,4′-dihydroxy-3′-prenylchalcone], in the experiment on 3T3-L1 cells, the activation at 3 µM lay in the range of 15 to 30% and the activation at 10 µM was 30 to 60%. Further, in experiment [2], the activation at 10 µM fell in the range of 15 to 30% and the activation at 30 µM was 30 to 60%.

Consider `COc1ccc(C(=O)/C=C/c2ccc(OC(C)=O)cc2)c(O)c1CC=C(C)C` [Compound (C078), 4-acetoxy-2′-hydroxy-3′-prenyl-4′-methoxychalcone], for which, in the experiment on 3T3-L1 cells, the activation at 10 µM lay within 30 to 60% and the activation at 30 µM is greater than 100%. In experiment [2], the activation at 10 µM fell in the range of 15 to 30% and the activation at 30 µM was greater than 100%.

With `CCOc1ccc(C(=O)/C=C/c2ccc(O)cc2)c(O)c1CC=C(C)C` [Compound (C049), 4,2′-dihydroxy-3′-prenyl-4′-ethoxychalcone], in the experiment with 3T3-L1 cells, the activation at 3 µM lay within 15 to 30% and the activation at 10 µM fell in the range of 15 to 30%. Besides, in experiment [2], the activation at 10 µM is 30 to 60% and the activation at 30 µM was greater than 100%.

As to `COc1ccc(C(=O)/C=C/c2ccc(Cl)cc2)c(OC(C)=O)c1C/C=C(\C)CCC=C(C)C` [Compound (C080), 4-chloro-2′-acetoxy-3′-geranyl-4′-methoxychalcone], in the experiment with 3T3-L1 cells, the activation at 1 µM was 60 to 100%, the activation at 3 µM was greater than 100% and the activation at 10 µM is greater than 100%. In experiment [2], the activation at 10 µM lay within 30 to 60% and the activation at 30 µM was in the range of 60 to 100%.

Regarding `CC(C)=CCCC(C)(O)C1Cc2c(ccc(C(=O)/C=C/c3ccc(O)cc3)c2O)O1` (centres unmarked) [TB3, 1-[2,3-dihydro-4-hydroxy-2-(1-hydroxy-1,5-dimethyl-4-hexenyl)-benzofuran-5-yl]-3-(4-hydroxyphenyl)-2-propen-1-one], in the experiment with 3T3-L1 cells, the activation at 3 µM is greater than 100% and the activation at 10 µM was greater than 100%. Moreover, in experiment [2], the activation at 3 µM was 30 to 60% and the activation at 10 µM was greater than 100%.

With `CCOc1ccc(C(C)=O)c(O)c1C/C=C(\C)CCC=C(C)C` [Compound (C048), 2′-hydroxy-3′-geranyl-4′-ethoxyacetophenone], in the experiment with 3T3-L1 cells, the activation at 10 µM was greater than 100% and the activation at 30 µM was greater than 100%. In experiment [2], the activation at 3 µM was in the range of 15 to 30%, the activation at 10 µM was 30 to 60% and the activation at 30 µM was greater than 100%.

Turning to `COc1ccc(C(C)=O)c(O)c1C/C=C(\C)CCC=C(C)C` [Compound (C038), 2′-hydroxy-3′-geranyl-4′-methoxyacetophenone], in the experiment with 3T3-L1 cells, the activation at 3 µM is 30 to 60% and the activation at 10 µM is greater than 100%. Also, in experiment [2], the activation at 10 µM was in the range of 30 to 60% and the activation at 30 µM lay within 60 to 100%.

Consider `O=C(/C=C/c1ccc(Cl)cc1)c1ccccc1OCc1ccccc1` [Compound (C066), 4-chloro-2′-benzyloxychalcone], for which, in the experiment on 3T3-L1 cells, the activation at 3 µM was 60 to 100% and the activation at 10 µM was greater than 100%. In experiment [2], the activation at 10 µM is 60 to 100% and the activation at 30 µM was 60 to 100%.

In the case of `COc1ccc(/C=C/C(=O)c2ccc(OC)c(CC=C(C)C)c2O)cc1` [Compound (C035), 4,4′-dimethoxy-2′-hydroxy-3′-prenylchalcone], in the experiment with 3T3-L1 cells, the activation at 3 µM was 60 to 100% and the activation at 10 µM was greater than 100%. For the same compound, in experiment [2], the activation at 10 µM lay in the range of 30 to 60% and the activation at 30 µM was 60 to 100%.

Turning to `COc1ccc(C(=O)/C=C/c2ccc(O)cc2)c(OCc2ccccc2)c1CC=C(C)C` [Compound (C077), 4-hydroxy-2′-benzyloxy-3′-prenyl-4′-methoxychalcone], in the experiment with 3T3-L1 cells, the activation at 3 µM was 30 to 60%. Also, in experiment [2], the activation at 10 µM lay within 30 to 60% and the activation at 30 µM fell in the range of 30 to 60%.
